Columns and labels:
A549 = test: Antiproliferative activity against human A549 cells assessed as reduction in cell viability incubated for 48 hrs by Sulforhodamine B assay; type: functional; conditions: A549, 48 h
HCT-116 = test: Antiproliferative activity against human HCT116 cells assessed as reduction in cell viability incubated for 48 hrs by Sulforhodamine B assay; type: functional; conditions: HCT-116, 48 h
[1] = biological target: T1, Protein deacetylase HDAC6 (Homo sapiens) (UniProt Q9UBN7); test: Inhibition of HDAC6 in human HCT116 cells assessed as increase in tubulin acetylation measured after 48 hrs by Western blot analysis; type: cell-based; conditions: HCT-116
T1 sequence (whole entry): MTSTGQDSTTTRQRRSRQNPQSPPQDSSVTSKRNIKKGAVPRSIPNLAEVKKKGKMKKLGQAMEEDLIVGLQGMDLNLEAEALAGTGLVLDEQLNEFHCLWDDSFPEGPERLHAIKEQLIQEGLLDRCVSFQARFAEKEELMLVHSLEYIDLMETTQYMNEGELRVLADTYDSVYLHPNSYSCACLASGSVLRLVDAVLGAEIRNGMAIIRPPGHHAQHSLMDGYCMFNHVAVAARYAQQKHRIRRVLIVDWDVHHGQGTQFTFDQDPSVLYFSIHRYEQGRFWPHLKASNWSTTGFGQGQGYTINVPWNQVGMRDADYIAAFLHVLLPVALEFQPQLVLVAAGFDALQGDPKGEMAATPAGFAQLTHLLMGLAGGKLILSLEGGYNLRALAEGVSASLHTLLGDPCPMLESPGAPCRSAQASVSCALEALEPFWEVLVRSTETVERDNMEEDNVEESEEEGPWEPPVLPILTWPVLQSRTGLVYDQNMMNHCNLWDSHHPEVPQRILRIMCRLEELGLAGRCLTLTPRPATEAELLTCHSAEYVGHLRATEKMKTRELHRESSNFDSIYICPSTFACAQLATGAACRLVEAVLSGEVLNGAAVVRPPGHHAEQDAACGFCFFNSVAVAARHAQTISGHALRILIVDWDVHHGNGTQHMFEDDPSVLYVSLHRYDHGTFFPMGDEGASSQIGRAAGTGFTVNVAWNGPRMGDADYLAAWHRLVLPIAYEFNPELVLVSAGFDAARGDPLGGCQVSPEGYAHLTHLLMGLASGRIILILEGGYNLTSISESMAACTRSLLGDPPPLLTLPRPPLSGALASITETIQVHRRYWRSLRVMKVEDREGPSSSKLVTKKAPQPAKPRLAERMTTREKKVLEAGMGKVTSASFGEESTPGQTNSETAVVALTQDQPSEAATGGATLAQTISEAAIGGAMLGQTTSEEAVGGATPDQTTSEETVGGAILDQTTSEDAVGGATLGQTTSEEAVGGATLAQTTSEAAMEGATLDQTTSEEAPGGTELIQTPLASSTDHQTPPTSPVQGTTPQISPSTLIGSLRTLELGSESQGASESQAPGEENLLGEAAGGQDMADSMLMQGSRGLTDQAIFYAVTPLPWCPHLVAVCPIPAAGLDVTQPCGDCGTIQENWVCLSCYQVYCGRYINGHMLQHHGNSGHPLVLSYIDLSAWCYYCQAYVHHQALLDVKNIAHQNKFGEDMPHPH

[2] = biological target: Class 1 histone deacetylase (Homo sapiens) (UniProt Q13547+O15379+Q92769+Q9BY41); test: Inhibition of class 1 HDAC in human HCT116 cells assessed as increase in H3 acetylation measured after 48 hrs by Western blot analysis; type: cell-based; conditions: HCT-116
Homo sapiens [3] = species: Homo sapiens; test: Selectivity ratio of IC50 for recombinant human C-terminal FLAG/His-tagged HDAC1 (1 to 482 residues) expressed in Sf21 insect cells to IC50 of human HDAC6
Homo sapiens [4] = species: Homo sapiens; test: Selectivity ratio of IC50 for recombinant human C-terminal His-tagged HDAC8 (1 to 377 residues) expressed in insect cells to IC50 of human HDAC6
Histone deacetylase 1 = Histone deacetylase 1 (Homo sapiens, UniProt Q13547); test: Inhibition of recombinant human C-terminal FLAG/His-tagged HDAC1 (1 to 482 residues) expressed in Sf21 insect cells by using RHK-K(Ac)-AMC as substrate measured after 60 mins by fluorescence assay
Histone deacetylase 2 = Histone deacetylase 2 (Homo sapiens, UniProt Q92769); test: Inhibition of recombinant human C-terminal GST-tagged HDAC2 (1 to 488 residues) expressed in insect cells using RHK-K(Ac)-AMC as substrate measured after 60 mins by fluorescence assay
[5] = biological target: T2, Protein deacetylase HDAC6 (Homo sapiens, UniProt Q9UBN7); test: Inhibition of human HDAC6 using fluorogenic-(RHKKAc) as substrate by fluorescence assay
T2 sequence (Q9UBN7 whole entry): T1 sequence (whole entry)

Histone deacetylase 8 = biological target: T3, Histone deacetylase 8 (Homo sapiens, UniProt Q9BY41); test: Inhibition of recombinant human C-terminal His-tagged HDAC8 (1 to 377 residues) expressed in insect cells using RHK-K(Ac)-AMC as substrate measured after 60 mins by fluorescence assay
T3 sequence (Q9BY41 whole entry): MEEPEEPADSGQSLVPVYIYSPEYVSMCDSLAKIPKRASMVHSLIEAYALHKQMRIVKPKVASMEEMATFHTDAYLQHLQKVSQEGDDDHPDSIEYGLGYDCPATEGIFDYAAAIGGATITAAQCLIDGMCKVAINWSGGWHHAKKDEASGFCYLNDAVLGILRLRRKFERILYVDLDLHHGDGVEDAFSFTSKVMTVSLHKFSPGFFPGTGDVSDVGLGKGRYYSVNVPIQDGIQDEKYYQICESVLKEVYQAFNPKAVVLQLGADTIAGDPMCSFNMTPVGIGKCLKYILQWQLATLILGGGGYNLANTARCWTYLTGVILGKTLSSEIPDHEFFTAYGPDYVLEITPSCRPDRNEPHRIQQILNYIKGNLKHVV

Homo sapiens [6] = species: Homo sapiens; test: Selectivity ratio of IC50 for recombinant human C-terminal GST-tagged HDAC2 (1 to 488 residues) expressed in insect cells to IC50 of human HDAC6

Histone deacetylase 1, sequence (Q13547 whole entry, the tested form may be a part): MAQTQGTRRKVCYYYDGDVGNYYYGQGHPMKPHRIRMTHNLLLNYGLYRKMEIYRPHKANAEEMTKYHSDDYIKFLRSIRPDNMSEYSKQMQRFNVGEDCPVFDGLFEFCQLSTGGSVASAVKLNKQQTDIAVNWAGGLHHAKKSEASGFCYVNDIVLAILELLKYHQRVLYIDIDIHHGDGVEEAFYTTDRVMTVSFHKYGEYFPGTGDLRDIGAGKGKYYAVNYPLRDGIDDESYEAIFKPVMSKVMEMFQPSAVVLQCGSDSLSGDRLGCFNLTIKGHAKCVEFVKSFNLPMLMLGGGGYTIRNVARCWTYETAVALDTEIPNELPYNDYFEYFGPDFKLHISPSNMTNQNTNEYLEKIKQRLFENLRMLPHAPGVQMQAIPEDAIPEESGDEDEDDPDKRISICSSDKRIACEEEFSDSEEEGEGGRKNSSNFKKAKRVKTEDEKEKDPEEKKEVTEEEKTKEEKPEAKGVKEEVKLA
Histone deacetylase 2, sequence (Q92769 whole entry, the tested form may be a part): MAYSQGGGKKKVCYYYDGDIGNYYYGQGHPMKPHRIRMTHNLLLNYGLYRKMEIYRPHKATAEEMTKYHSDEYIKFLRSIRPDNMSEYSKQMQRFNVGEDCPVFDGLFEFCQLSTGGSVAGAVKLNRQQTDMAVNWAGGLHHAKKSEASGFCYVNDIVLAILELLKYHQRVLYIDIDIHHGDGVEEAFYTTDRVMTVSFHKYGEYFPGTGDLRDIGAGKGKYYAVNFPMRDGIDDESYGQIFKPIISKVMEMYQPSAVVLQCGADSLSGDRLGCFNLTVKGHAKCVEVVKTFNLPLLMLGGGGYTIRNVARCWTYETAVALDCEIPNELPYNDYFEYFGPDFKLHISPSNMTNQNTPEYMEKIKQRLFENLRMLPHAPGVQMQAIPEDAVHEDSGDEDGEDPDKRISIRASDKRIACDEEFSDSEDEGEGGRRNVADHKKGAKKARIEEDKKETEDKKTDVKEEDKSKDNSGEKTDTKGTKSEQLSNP

Compound: CC(C)c1ccc(Oc2ccc3nc(/C=C/C(=O)NO)ccc3c2)cc1
- GI50 (A549): 3280 nM
- GI50 (HCT-116): 4080 nM

Compound: COc1ccc(Oc2ccc3nc(/C=C/C(=O)NO)ccc3c2)cc1
- inhibition [1]: Dose-dependent effect
- GI50 (A549): 3200 nM
- inhibition [2]: Dose-dependent effect
- Ratio IC50 (Homo sapiens [3]): > 483
- Ratio IC50 (Homo sapiens [4]): 374
- IC50 (Histone deacetylase 1; read-out: IC50): > 10 µM
- IC50 (Histone deacetylase 2): Not Active
- IC50 [5]: 20.7 nM
- IC50 (Histone deacetylase 8): 7.75 µM
- GI50 (HCT-116): 1820 nM

Compound: Cc1ccc(C(=O)c2ccc3nc(/C=C/C(=O)NO)ccc3c2)cc1
- GI50 (A549): 2580 nM
- GI50 (HCT-116): 2510 nM

Compound: CN1CCc2c(c3ccccc3n2Cc2ccc(C(=O)NO)cc2)C1 [TUBASTATIN A]
- GI50 (A549): > 5000 nM
- GI50 (HCT-116): > 5000 nM

Compound: COc1cc(Oc2ccc3nc(/C=C/C(=O)NO)ccc3c2)cc(OC)c1OC
- inhibition [1]: Dose-dependent effect
- GI50 (A549): 2430 nM
- inhibition [2]: Dose-dependent effect
- Ratio IC50 (Homo sapiens [3]): 67
- Ratio IC50 (Homo sapiens [4]): 106
- IC50 (Histone deacetylase 1; read-out: IC50): 1.77 µM
- IC50 (Histone deacetylase 2; read-out: IC50): 18.7 nM
- IC50 [5]: 26.5 nM
- IC50 (Histone deacetylase 8): 2.82 µM
- GI50 (HCT-116): 740 nM
- Ratio IC50 (Homo sapiens [6]): 0.7

Compound: O=C(/C=C/c1ccc2cc(-c3ccoc3)ccc2n1)NO
- GI50 (A549): 1920 nM
- GI50 (HCT-116): 1560 nM

Compound: O=C(/C=C/c1ccc2cc(C(=O)c3ccc(F)cc3)ccc2n1)NO
- GI50 (A549): 1260 nM
- GI50 (HCT-116): 1840 nM

Compound: COc1ccc(-c2ccc3nc(/C=C/C(=O)NO)ccc3c2)cc1
- inhibition [1]: Dose-dependent effect
- GI50 (A549): 2350 nM
- inhibition [2]: Dose-dependent effect
- Ratio IC50 (Homo sapiens [4]): 97
- IC50 (Histone deacetylase 1; sf21): Not Active
- IC50 (Histone deacetylase 2; read-out: IC50): 1310 nM
- IC50 [5]: 49 nM
- IC50 (Histone deacetylase 8): 4.77 µM
- GI50 (HCT-116): 1470 nM
- Ratio IC50 (Homo sapiens [6]): 27

Compound: COc1ccc(C(=O)c2ccc3nc(/C=C/C(=O)NO)ccc3c2)cc1
- GI50 (A549): 1890 nM
- GI50 (HCT-116): 2300 nM

Compound: COc1cccc(Oc2ccc3nc(/C=C/C(=O)NO)ccc3c2)c1
- GI50 (A549): 4350 nM
- GI50 (HCT-116): 2740 nM

Compound: COc1cc(C(=O)c2ccc3nc(/C=C/C(=O)NO)ccc3c2)cc(OC)c1OC
- GI50 (A549): 3350 nM
- GI50 (HCT-116): 2620 nM

Compound: COc1ccc(C(=O)c2ccc3nc(/C=C/C(=O)NO)ccc3c2)cc1OC
- GI50 (A549): 3310 nM
- GI50 (HCT-116): 1780 nM

Compound: O=C(CCCCCCC(=O)Nc1ccccc1)NO [VORINOSTAT]
- GI50 (A549): 2620 nM
- GI50 (HCT-116): 440 nM

Compound: O=C(/C=C/c1ccc2cc(Oc3ccc([N+](=O)[O-])cc3)ccc2n1)NO
- inhibition [1]: Dose-dependent effect
- GI50 (A549): 1630 nM
- inhibition [2]: Dose-dependent effect
- Ratio IC50 (Homo sapiens [3]): 118
- Ratio IC50 (Homo sapiens [4]): 45
- IC50 (Histone deacetylase 1; read-out: IC50): 6.05 µM
- IC50 (Histone deacetylase 2): Not Active
- IC50 [5]: 51.4 nM
- IC50 (Histone deacetylase 8): 2.32 µM
- GI50 (HCT-116): 1000 nM

Compound: COc1ccc(S(=O)(=O)Nc2ccc3nc(/C=C/C(=O)NO)ccc3c2)cc1
- GI50 (A549): 4310 nM
- GI50 (HCT-116): 6680 nM
